In ChEMBL document CHEMBL1201862, “PubChem BioAssay data set” (2004):
Activity calls are given as the source filed them.

What was measured:
[1] = viability of uninfected HEp-2 cells – cell-based, HTS, cytotoxicity control for RSV inhibitor project, dose response (AID 2410); format: functional; conditions: human respiratory syncytial virus
[2] = target: Heat shock protein HSP 90-alpha (Homo sapiens, UniProt P07900); format: functional, organism-based
[3] = target: Voltage-gated inwardly rectifying potassium channel KCNH2 (Homo sapiens, UniProt Q12809); conditions: Potency;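 note: confirmatory quantitative high-throughput screen measuring inhibition of hERG channel activity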
Sequence of Voltage-gated inwardly rectifying potassium channel KCNH2 (Q12809 whole entry): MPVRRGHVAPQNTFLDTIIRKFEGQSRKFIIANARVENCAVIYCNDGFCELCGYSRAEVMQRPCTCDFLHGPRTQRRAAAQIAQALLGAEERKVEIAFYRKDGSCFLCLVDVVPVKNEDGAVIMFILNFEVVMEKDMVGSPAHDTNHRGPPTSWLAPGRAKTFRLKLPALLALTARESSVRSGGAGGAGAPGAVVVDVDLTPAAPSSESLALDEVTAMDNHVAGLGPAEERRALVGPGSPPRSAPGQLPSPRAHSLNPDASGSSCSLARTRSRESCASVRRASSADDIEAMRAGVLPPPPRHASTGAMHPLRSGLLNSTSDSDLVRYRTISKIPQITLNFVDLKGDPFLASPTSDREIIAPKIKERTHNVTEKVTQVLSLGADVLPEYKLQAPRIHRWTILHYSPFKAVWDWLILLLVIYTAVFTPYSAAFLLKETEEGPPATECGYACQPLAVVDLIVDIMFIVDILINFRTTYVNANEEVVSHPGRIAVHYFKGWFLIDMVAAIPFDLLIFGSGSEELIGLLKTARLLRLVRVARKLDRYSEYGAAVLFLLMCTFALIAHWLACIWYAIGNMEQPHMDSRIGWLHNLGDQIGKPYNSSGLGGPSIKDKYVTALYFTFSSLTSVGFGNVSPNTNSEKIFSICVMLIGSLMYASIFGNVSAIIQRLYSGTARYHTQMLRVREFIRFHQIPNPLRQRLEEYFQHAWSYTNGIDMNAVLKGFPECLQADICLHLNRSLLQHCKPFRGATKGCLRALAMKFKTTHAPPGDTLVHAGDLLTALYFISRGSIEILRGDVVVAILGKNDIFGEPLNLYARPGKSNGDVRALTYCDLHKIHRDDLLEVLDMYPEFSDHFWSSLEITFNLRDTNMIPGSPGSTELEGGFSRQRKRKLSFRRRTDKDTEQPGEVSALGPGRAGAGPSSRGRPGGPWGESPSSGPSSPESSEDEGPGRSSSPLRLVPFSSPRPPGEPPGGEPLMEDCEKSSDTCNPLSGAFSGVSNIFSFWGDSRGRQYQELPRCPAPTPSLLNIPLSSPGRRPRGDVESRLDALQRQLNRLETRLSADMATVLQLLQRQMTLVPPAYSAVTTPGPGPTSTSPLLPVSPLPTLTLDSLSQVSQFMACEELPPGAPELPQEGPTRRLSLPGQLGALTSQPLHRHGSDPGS

[4] = loss of viability in HepG2 cells – cell-based, CellTiter-Glo, cherry-picked, cytotoxicity control for Shn3 inhibitor project, dose response (AID 624134); format: functional
[5] = non-specific 3'UTR reporter inhibition in Clone20-Shn3RL – cell-based, Renilla luciferase, cherry-picked, counter-screen for Shn3 inhibitor project, dose response (AID 624133); format: functional
[6] = reduction of Shn3 3'UTR-driven luciferase in osteoblasts – cell-based, Clone20 osteoblasts, firefly luciferase, cherry-picked, dose response (AID 624132); format: functional;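 note: firefly luciferase luminescence from reporter carrying the Shn3 3'UTR in osteoblasts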
HEK293 [7] = test: cells; conditions: Homo sapiens
[8] = target: T1, Polyadenylate-binding protein 1 (Homo sapiens, UniProt P11940); test: MLLE domain peptide-binding blockers, IC50 – biochemical, fluorescence polarization, FITC-PAM2 peptide, dose response (AID 602259); format: functional; conditions: read-out: IC50_Mean
T1 sequence (P11940 whole entry, the tested form may be a part): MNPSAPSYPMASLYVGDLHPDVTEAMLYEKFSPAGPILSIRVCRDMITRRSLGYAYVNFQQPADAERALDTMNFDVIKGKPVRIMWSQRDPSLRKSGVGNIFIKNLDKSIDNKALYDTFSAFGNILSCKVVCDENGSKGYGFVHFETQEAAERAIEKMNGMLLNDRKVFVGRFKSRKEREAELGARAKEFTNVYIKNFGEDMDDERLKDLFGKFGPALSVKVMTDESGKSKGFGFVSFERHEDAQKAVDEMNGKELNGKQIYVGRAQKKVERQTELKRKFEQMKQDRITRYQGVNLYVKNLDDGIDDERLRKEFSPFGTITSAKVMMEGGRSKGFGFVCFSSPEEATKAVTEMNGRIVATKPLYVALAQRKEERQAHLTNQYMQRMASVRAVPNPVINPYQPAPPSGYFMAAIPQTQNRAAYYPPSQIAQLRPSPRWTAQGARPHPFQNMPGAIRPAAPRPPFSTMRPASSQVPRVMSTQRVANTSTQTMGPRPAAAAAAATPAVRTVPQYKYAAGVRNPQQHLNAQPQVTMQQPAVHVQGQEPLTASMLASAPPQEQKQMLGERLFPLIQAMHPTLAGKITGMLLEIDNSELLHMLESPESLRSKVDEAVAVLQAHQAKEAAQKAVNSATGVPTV

HEK293 [9] = test: cells; conditions: Homo sapiens; remark: listed apart in the source
[10] = target: T1, Polyadenylate-binding protein 1; test: MLLE binding blockers, Cy5 peptide tracer – biochemical, fluorescence polarization, Cy5-PAM2 peptide, secondary, miRNA deadenylation inhibitor project, dose response (AID 602260); format: functional; conditions: read-out: IC50_Mean
INS1 = test: INS-1E survival protection against cytokine death – cell-based, luminescence, retest, dose response (AID 449756); format: functional; conditions: Rattus norvegicus;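 note: cell death triggered by IL-1 beta plus TNF-alpha plus IFN-gamma mixture; protective hits raise ATP signal compared with cytokine alone wells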
[11] = target: T2, Microphthalmia-associated transcription factor (Homo sapiens, UniProt O75030); test: reducers of TRPM1 reporter luminescence, concentration series – cell-based, SK-MEL-5, cherry-picked, set 3, MITF inhibitor project, dose response (AID 493073); format: functional;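 note: SK-MEL-5 melanoma cells with luciferase driven by the MITF target TRPM1 promoter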
T2 sequence (O75030 whole entry): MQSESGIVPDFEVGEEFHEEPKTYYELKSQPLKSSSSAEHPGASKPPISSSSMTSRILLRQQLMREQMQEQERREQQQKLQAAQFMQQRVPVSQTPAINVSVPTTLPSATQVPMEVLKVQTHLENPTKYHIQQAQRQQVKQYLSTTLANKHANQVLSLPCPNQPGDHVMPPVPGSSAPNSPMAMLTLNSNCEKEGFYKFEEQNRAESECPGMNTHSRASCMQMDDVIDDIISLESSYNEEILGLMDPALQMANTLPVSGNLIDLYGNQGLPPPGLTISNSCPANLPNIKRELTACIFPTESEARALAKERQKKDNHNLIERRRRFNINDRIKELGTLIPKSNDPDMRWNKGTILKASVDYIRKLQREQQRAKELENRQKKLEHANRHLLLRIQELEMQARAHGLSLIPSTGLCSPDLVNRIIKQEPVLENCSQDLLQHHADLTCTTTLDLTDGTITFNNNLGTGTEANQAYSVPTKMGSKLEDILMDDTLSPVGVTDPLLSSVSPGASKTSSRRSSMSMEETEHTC

[12] = reduced cellular PGC1a acetyl-lysine signal – cell-based, cherry-picked samples, dose response (AID 720514); format: functional;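 note: potency may reflect raised or lowered acetylation signal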
A-375 = test: proliferation inhibition in MITF-low A375 cells – cell-based, cherry-pick samples, set 2, counter-screen for MITF modulator project, dose response (AID 540335); format: functional; conditions: Homo sapiens
Vero = test: cells; format: functional; conditions: Chlorocebus sabaeus
Beta-galactosidase = Beta-galactosidase (Escherichia coli, UniProt Q8VNN2); test: detection-enzyme interference by beta-gal modulators – biochemical, E. coli enzyme, set 3, artefact control for CCR6 antagonist project, dose response (AID 504712); format: functional
Sequence of Beta-galactosidase (Q8VNN2 whole entry): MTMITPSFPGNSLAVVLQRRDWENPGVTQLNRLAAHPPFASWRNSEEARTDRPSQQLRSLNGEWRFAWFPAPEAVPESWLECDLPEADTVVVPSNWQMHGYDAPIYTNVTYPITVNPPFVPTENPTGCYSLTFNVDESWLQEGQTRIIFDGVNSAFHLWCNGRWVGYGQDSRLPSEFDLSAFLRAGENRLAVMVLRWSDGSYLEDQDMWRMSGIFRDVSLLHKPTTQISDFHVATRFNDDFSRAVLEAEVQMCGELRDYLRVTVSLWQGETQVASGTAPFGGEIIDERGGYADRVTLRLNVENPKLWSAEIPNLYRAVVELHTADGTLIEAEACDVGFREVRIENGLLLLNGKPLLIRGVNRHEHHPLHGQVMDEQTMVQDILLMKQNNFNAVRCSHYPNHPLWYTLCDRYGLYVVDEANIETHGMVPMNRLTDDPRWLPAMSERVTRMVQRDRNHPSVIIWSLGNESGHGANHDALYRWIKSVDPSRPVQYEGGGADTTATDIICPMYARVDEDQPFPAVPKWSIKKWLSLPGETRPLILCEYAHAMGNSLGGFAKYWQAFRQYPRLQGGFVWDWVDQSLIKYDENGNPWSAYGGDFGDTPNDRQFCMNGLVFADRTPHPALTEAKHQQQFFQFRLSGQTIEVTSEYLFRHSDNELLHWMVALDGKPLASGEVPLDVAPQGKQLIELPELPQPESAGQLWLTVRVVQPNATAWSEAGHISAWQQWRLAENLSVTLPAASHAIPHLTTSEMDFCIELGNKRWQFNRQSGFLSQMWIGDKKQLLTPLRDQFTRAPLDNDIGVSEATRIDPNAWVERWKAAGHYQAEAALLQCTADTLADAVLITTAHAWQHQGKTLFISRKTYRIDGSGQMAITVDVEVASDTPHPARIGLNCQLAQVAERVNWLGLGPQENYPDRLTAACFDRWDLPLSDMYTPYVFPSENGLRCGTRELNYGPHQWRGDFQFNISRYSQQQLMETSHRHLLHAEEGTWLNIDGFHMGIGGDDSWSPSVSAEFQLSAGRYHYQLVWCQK

Cytochrome P450 3A4 = Cytochrome P450 3A4 (Homo sapiens, UniProt P08684);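 note: CYP3A4 tested as one member of a cytochrome P450 panel screen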
Sequence of Cytochrome P450 3A4 (P08684 whole entry): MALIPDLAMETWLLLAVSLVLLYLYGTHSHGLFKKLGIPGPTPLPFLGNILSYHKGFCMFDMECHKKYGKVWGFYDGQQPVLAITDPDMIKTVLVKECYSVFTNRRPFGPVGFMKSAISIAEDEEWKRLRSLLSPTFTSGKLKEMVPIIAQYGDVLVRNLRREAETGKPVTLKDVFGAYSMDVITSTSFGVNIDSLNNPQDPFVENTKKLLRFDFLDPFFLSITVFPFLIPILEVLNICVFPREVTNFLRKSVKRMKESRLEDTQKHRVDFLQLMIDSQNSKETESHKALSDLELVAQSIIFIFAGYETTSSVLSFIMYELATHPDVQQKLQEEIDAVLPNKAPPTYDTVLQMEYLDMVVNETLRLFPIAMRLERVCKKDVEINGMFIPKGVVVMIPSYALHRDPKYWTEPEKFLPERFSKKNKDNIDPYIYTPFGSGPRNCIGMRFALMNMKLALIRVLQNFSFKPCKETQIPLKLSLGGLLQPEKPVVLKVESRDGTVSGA

CCCCCCCCCCCCCCCC(=O)OC(CC(=O)O)C[N+](C)(C)C (stereo unspecified)
CC50 [1]: 23.7 µM (active) | AC50 [2]: 1.39 µM (active) | AC50 [3]: 35.5 µM (inconclusive)

COc1ccc(OC)c(/C=C/C(=O)N2C(=O)c3cccc(N)c3C2=O)c1
AC50 [4]: 58.5 µM (active) | AC50 [5]: 26.6 µM (active) | AC50 [6]: 3.25 µM (active) | EC50 (HEK293 [7]): > 59.7 µM (inactive) | IC50 [8]: > 66 µM (inactive) | EC50 (HEK293 [9]): > 59.7 µM (inactive) | IC50 [10]: > 66 µM (inactive)

COc1cc(NC(=O)c2[nH]cnc2C(N)=O)cc(C(=O)Nc2cccc(C(F)(F)F)c2)c1
AC50 (INS1): 3.48 µM (active) | AC50 [11]: 10.9 µM (active) | AC50 [12]: 6.34 µM (active) | AC50 (A-375): 17 µM (active)

O=C1Nc2ccc(Br)cc2/C1=C/C(=O)c1ccccc1
CC50 (Vero): 19.1 µM (active) | IC50 (Beta-galactosidase): > 66.6 µM (inactive) | EC50 (HEK293 [7]): > 59.6 µM (inactive) | EC50 (HEK293 [9]): > 59.6 µM (inactive) | AC50 [2]: 0.986 µM (active)

[Cl-].[Li+] [CHLOROLITHIUM]
AC50 (Cytochrome P450 3A4): 31.6 µM (inconclusive) | AC50 [3]: 6.31 µM (inconclusive)
